Results reported in ChEMBL document CHEMBL1201862, “PubChem BioAssay data set” (2004).
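Exposure lasted 48 hours, with cells grown in 96-well plates and compounds tested at five concentrations. GI50: concentration for 50% inhibition of growth.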 The source made the active and inactive calls. Cut-off read from the data, not from the text of the source: active = GI50 up to about 1.1 µM and inactive = higher.

Legend:
Assay in all cases: NCI anticancer screen, dose series, 48 h
PC-3 = tested on: PC-3
SW-620 = tested on: SW-620
A549 = tested on: A549
TK-10 = tested on: TK-10
SR = tested on: SR
NCI-H460 = tested on: NCI-H460
SK-MEL-28 = tested on: SK-MEL-28
CAKI-1 = tested on: CAKI-1
HCC 2998 = tested on: HCC 2998
UACC-62 = tested on: UACC-62
SNB-75 = tested on: SNB-75
CCRF-CEM = tested on: CCRF-CEM
HL-60 = tested on: HL-60
U-251 = tested on: U-251
SN12C = tested on: SN12C
SNB-19 = tested on: SNB-19
SF-295 = tested on: SF-295
SF-268 = tested on: SF-268
EKVX = tested on: EKVX
NCI/ADR-RES = tested on: NCI/ADR-RES

Measured: GI50

Cc1nc2c(n1-c1ccc(Br)cc1)C(=O)c1ccccc1C2=O
inactive: PC-3 1.26 µM | SW-620 7.74 µM | A549 6.93 µM | TK-10 34.4 µM | NCI-H460 1.44 µM | SK-MEL-28 12.9 µM | CAKI-1 12.5 µM | HCC 2998 14 µM | UACC-62 2.82 µM | SNB-75 20 µM | CCRF-CEM 3.16 µM | U-251 3.54 µM | SN12C 4.76 µM | SNB-19 3.6 µM | SF-295 5.45 µM | SF-268 5.21 µM | EKVX > 54.6 µM | NCI/ADR-RES 5.78 µM
active: SR 1.07 µM | HL-60 0.783 µM

CN1C(=O)CC2(C)c3cc(O)ccc3N(C)C12 (stereo not given)
inactive: PC-3 41.5 µM | SW-620 20 µM | A549 > 68.5 µM | TK-10 > 90.4 µM | SR 18.5 µM | NCI-H460 50.9 µM | SK-MEL-28 50.7 µM | CAKI-1 23.8 µM | HCC 2998 > 100 µM | UACC-62 20.1 µM | SNB-75 30.8 µM | CCRF-CEM 13.2 µM | HL-60 21.2 µM | U-251 19.2 µM | SN12C 15.5 µM | SNB-19 46.9 µM | SF-295 29.8 µM | SF-268 27 µM | EKVX 37.8 µM | NCI/ADR-RES 39.4 µM

COc1ccccc1CCN1CCN(CCCc2ccccc2)CC1
inactive: PC-3 > 100 µM | SW-620 > 100 µM | A549 85.7 µM | TK-10 75.5 µM | SR 32.7 µM | NCI-H460 54.3 µM | SK-MEL-28 > 100 µM | CAKI-1 91 µM | HCC 2998 47.3 µM | UACC-62 > 100 µM | SNB-75 > 100 µM | CCRF-CEM > 100 µM | HL-60 65.9 µM | U-251 > 100 µM | SN12C 83.9 µM | SNB-19 > 100 µM | SF-295 52.5 µM | SF-268 > 100 µM | EKVX > 100 µM | NCI/ADR-RES > 100 µM

Nc1cc2[nH]cnc2c(=O)[nH]1 [DEZAGUANINE]
inactive: PC-3 9.29 µM | SW-620 17.7 µM | A549 24.5 µM | TK-10 13.9 µM | SR 9.1 µM | NCI-H460 10.4 µM | SK-MEL-28 40.6 µM | CAKI-1 11 µM | HCC 2998 82.8 µM | UACC-62 12.9 µM | SNB-75 90.8 µM | CCRF-CEM 7.93 µM | HL-60 6.21 µM | U-251 30.5 µM | SN12C 14.6 µM | SNB-19 > 264 µM | SF-295 > 219 µM | SF-268 15 µM | EKVX 56.2 µM | NCI/ADR-RES 50.9 µM
